The assay concerns mushroom tyrosinase (Sigma). The assay is described as follows: Tyrosinase inhibition assay. The assay is classed as biochemical. The settings on record: for IC50: 0.5 mM tyrosine, pH 7.00, tyrosinase 60.5 U/mL, read-out: IC50 tyrosinase inhibition activity: components. As to the method: Determination of melanin content within each MelanoDerm was performed by absorbance measurement at 475 nm. IC50 was determined by Tyrosinase inhibition assay. […] The reaction rate in the first 6.5 min is calculated based on the absorbance change at 475 nm.

The source of these data is patent US20060110341A1, “Cosmetic compositions containing Sophora alopecuroides L. extracts” (Unilever Home & Personal Care USA, Division Of Conopco, Inc., priority 2004, published 2006).

A word on the IC50: it is the concentration at which inhibition is half-maximal.

Consider `C=C(C)C(CC=C(C)C)Cc1c2c(c(O)c3c1OC(c1ccc(O)cc1)C3c1cc(O)cc(O)c1)C(=O)CC(c1ccc(O)cc1O)O2` (stereo not drawn) [Alopecurone A], for which the “tyrosinase inhibition activity (in words)” value is given as “showing tyrosinase inhibition activity” and the IC50 was 9 µM.

With `C=C(C)C(CC=C(C)C)Cc1c2c(c(O)c3c1OC(c1ccc(O)cc1)C3c1cc(O)cc(O)c1)C(=O)CC(c1ccc(O)cc1O)O2` (stereo not drawn) [Alopecurone B], the “tyrosinase inhibition activity (in words)” value is given as “showing tyrosinase inhibition activity” and the IC50 came to 5 µM.

As for `Oc1ccc(O)cc1` [Hydroquinone, reference compound], the IC50 stood at 36.4 µM. For the same compound, the “IC50 tyrosinase inhibition activity, in brackets by weight” value (same value as the μM figure) was “(4 micro-q/ml) micro-g/ml”.

For the compound `C=C(C)[C@H](CC=C(C)C)Cc1c(O)cc(O)c2c1O[C@H](c1ccc(O)cc1O)CC2=O` [Sophoraflavone G], the IC50 stood at 14 µM.

In the case of Sophoraflavone I, the IC50 turned out to be 15 µM.

In the case of Sophoraflavone K, the IC50 was 1 µM.
